In this assay the test system is M. tuberculosis isolates ATCC 27294 and 571/573-BAL. Put plainly: CB-18 and TMA-18 comparison, BACTEC 12B growth curves. The format is cell-based, Mycobacterium tuberculosis. As for the experimental part:
If the mechanism of CB-18's action was similar to that of the quaternary salts (i.e., generally deleterious), then some delay would be anticipated. For example, if the CB-18 effect was a consequence of the surface active property of the detergent, then disruption of cellular function would not only have nonspecific long term consequences, but would also be independent of the isolate. In an effort to examine the similarity in the mechanism, CB-18 was assayed in parallel with trimethyloctadecylammonium bromide (TMA-18 (Aldrich, Milwaukee, Wis., Cat.# 35,924-6): made as a 100× stock in 1:1, water:isopropanol similar to that described for CB-18 in Example 1). The experimental design is outlined in FIG. 6.
In this experiment both ATCC 27294 and 571/573-BAL were cultivated on 7H11-selective media, and then serially diluted in NALC/citrate to 10,000×. The planting solution (i.e., the final dilution (50,000×)) was manufactured by diluting into either buffer, 0.5 mM CB-18, or 0.1 mM TMA-18 (all concentrations represent the final detergent concentration in the planting solution). […] The final concentration of CB-18 during incubation was approximately 17 μg/ml. The final concentration of TMA-18 during incubation was approximately 3.4 μg/ml. […] FIGS. 7A–7C show one experiment wherein ATCC 27294 cells were planted in the different solutions described above, and FIGS. 8A–8C show a parallel experiment wherein 571/573-BAL cells were planted in the same series.

Counter-ions that a name gives are not always drawn.

Consider `CCCCCCCCCCCCCCCCCC[N+](C)(C)CCCC(=O)[O-]` [CB-18, N-(3-carboxypropyl)-N,N-dimethyl-1-octadecanaminium, inner salt], for which the effect on growth entry reads like this: (571/573-BAL, 17 μg/ml CB-18, R.F., PANTA and P/cax) “delays in all conditions became obvious”; (571/573-BAL, 17 μg/ml CB-18 with P/cax) “dramatic delay”; (ATCC 27294, 17 μg/ml CB-18 in PANTA alone) “minor delays”; (ATCC 27294, 17 μg/ml CB-18 with P/cax) “significant delays”.

The record behind these values is patent publication US7067500B2, “Betaines as adjuvants to susceptibility testing and antimicrobial therapy” (priority 1997, dated 2006).
